{"source": "patent US20230064490A1", "about": "“FLUORESCENT PROTEIN BIOSENSOR FOR DETECTION OF KINASE ACTIVITY” (Lucidicor Inc., priority 2018, published 2023)", "data": [{"test_system": "PKA", "experiment": "PKA-PhosFluor fluorescence in transfected HEK-293 cells treated with drug", "type": "cell-based, human", "details": "HEK-293 cells transfected with PKA-PhosFluor; excitation 488 nm, emission 530 nm; 6 hr after addition of drug", "protocol": "PKA-PhosFluor and cat_PKA are transcribed from different plasmids maintained by separate antibiotic resistance genes. FIG. 2C and FIG. 2D show charcoal agar plates streaked with E. coli containing the two plasmids indicated in B. The control plate lacks IPTG (FIG. 2C) while the IPTG plate was treated with 1 mM IPTG for 24 hours (FIG. 2D). […] Graphs depict % fluorescence change (excitation 488 nm; emission 530 nm) measured using a microplate reader 6 hr after addition of the indicated drug. Error bars indicate ±SEM (n=6). FIG. 2F is a schematic diagram showing mechanism of action for each drug.\nNext, the ability of PKA-PhosFluor to monitor PKA activity in mammalian cells was examined. PKA activity is regulated by the level of cAMP, which itself, is regulated by other signaling pathways and cell growth (Uhler et al., 1986). […] All the drugs used have widely varying mechanisms of action (FIG. 2F).", "values": [{"compound": "Nc1ncnc2c1ncn2[C@@H]1O[C@@H]2COP(O)(=S)O[C@H]2[C@H]1O", "note": "(some centres unmarked) [Rp-cAMP]", "fluorescence of PKA-PhosFluor (% fluorescence change)": "reduced fluorescence"}, {"compound": "CC(C)Cn1c(=O)n(C)c(=O)c2[nH]cnc21", "note": "[IBMX]", "fluorescence of PKA-PhosFluor (% fluorescence change)": "induced fluorescence"}, {"compound": "Nc1ncnc2c1nc(Br)n2[C@@H]1O[C@@H]2COP(=O)(O)O[C@H]2[C@H]1O", "note": "[br-cAMP]", "fluorescence of PKA-PhosFluor (% fluorescence change)": "induced fluorescence"}, {"compound": "CCCCCCOC(=O)[C@]1(O)C[C@@H]2O[C@@]1(C)n1c3ccccc3c3c4c(c5c6ccccc6n2c5c31)C(=O)NC4", "note": "[KT-5720]", "fluorescence of PKA-PhosFluor (% fluorescence change)": "reduced fluorescence"}, {"compound": "O=S(=O)(NCCNC/C=C/c1ccc(Br)cc1)c1cccc2cnccc12", "note": "[H89]", "fluorescence of PKA-PhosFluor (% fluorescence change)": "reduced fluorescence"}]}]}
